Data published in patent US7014990B2, “Machine perfusion solution for organ and biological tissue preservation” (priority 2000, dated 2006).

Assay type: physicochemical
Description: A machine perfusion solution of the invention may be prepared by combining the components described above with sterile water, such as distilled and/or deionized water. For example, to prepare the solution, approximately 700–900 mL, or preferably about 800 mL, of sterile water is poured into a one liter beaker at approximately room temperature. Although a one liter beaker is used in this example, any other container of any size may be used to prepare the solution, where the component amounts would be adjusted accordingly. In the most preferred embodiment, the following are added, in any order, to the solution and each is mixed until dissolved in the solution: approximately […] sodium gluconate, approximately […] potassium phosphate, approximately […] adenine, approximately […] of ribose, approximately […] of calcium chloride, and approximately 50 g modified pentastarch. The modified pentastarch is a fractionated colloid mixture of 40–60 kDaltons in diameter and is modified by infusing the pentastarch under 3 atm of pressure through a dialyzing filter with a bore size of about 40–60 kDaltons. About […] magnesium gluconate, approximately […] HEPES, approximately […] glucose, and approximately […] mannitol are also added, in any order, and mixed. Approximately 40 U of insulin is also added. […]

half-life lengthened by a multiple: about 15
Compound: CCCCC[C@H](O)/C=C/[C@H]1[C@H](O)CC(=O)[C@@H]1CCCCCCC(=O)O [modified PGE1, prostaglandin E1]
